Results as given in patent publication EP0450065A1, “ANTIVIRAL AGENT” (priority 1988, dated 1990).
Read-outs that look alike come from different tables or passages of the source.

Columns and labels:
[1] = test system: herpes simplex virus type 2 (169 strain); assay: Control of CPE (cytopathic effect) manifestation in vero cells; assay type: cell-based; set-up: key to Cytopathic effect [CPE] (3days) Average / Cytopathic effect [CPE] (5days) Average / Cytopathic effect [CPE] (6days) Average: CPE score 0-3: 3 = ≥75% cells, 2 = 50%, 1 = 25%, 0 = none; key to Cytopathic effect [CPE] (3days) △CPE / Cytopathic effect [CPE] (5days) △CPE / Cytopathic effect [CPE] (6days) △CPE: difference of mean CPE score (0-3 scale) from untreated control; details: HSV-2 (169); for Cytopathic effect [CPE] (3days) △CPE / Cytopathic effect [CPE] (5days) △CPE / Cytopathic effect [CPE] (6days) △CPE: difference from control
Experimental: Vero cells cultured and grown in a monolayer on microplates to test for cytopathic effect due to viral infection, with solutions of Compound A diluted to varying ratios and solutions of virus diluted to varying ratios added severally thereto in a volume of 0.1 ml, were cultured under the conditions of 5% CO₂ and 37°C and were examined for CPE manifestation under a microscope. The observation was continued for five to six days.
The degree of CPE brought about by viral infection was rated on the five-point scale, wherein 3 stands for CPE observed on not less than 75% of cultured cells, 2 for CPE observed on 50% of cultured cells, 1 for CPE observed on 25% of cultured cells, 0.5 for occurrence of one to two extremely minute DPE spots, and 0 for perfect absence of recognizable CPE. The CPE scores obtained at the four holes in each microplate were averaged and the difference of the average from the average obtained in the control (omitting the treatment with a chemical) was reported as ΔCPE.
In vitro antiviral activity of Compound A against herpes simplex virus type 2 (169 strain) The test was carried out by following the procedure of Example 3.

[2] = molecular target: thymidine kinase [TK(v)] (Human herpesvirus 1, UniProt P0DTH5); details: viral versus cellular thymidine kinase; cited from earlier work
thymidine kinase [TK(v)], sequence (P0DTH5 whole entry): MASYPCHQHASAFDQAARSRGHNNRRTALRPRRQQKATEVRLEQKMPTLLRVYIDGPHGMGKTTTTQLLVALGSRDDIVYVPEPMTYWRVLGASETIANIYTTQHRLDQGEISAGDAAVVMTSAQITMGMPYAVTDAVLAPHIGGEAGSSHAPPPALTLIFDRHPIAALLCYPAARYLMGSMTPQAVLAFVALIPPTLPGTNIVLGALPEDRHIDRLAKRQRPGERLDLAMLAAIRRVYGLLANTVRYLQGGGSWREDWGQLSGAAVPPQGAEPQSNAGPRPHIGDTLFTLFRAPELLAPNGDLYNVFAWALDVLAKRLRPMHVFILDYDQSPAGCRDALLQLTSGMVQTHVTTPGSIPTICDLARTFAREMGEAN

[3] = test system: vero cells; details: control ratio on propagation of vero cells, 72hr
Experimental: Samples of the control group contained 0.1 ml of a culture solution (an Eagle's MEM culture medium containing 10% fetal bovine serum).
The test was conducted by using three culture tubes per group, culturing the cells in the tubes at 37°C for three days, and taking count of live cells by the dye-exclusion method.

[4] = test system: vero cells; details: african green monkey
Experimental: Compound A and Compound B were severally dissolved in distilled water in a concentration of 5 mg/ml, to prepare master solutions. Each of the master solutions was suitably diluted with an Eagle's MEM culture medium containing 10% fetal bovine serum. A 0.2-ml portion of the resultant dilution product was placed on vero cells cultured in advance on a microplate and grown in a monolayer, cultured further thereon at 37°C for three to five days. Samples taken severally after three days'and five days'culture were placed under a microscope and tested for cytopathogenic effect brought about by a chemical agent.

Q: For `Nc1nc2c(ncn2COCCO)c(=O)[nH]1` [ACV, acyclovir, reference compound], which “Cytopathic effect [CPE] (3days) Average” value ([1]; 100 μg/ml, Example 4) is on record?
A: Its value is 0.

Q: And the “Cytopathic effect [CPE] (5days) Average” value ([1]; 100 μg/ml, Example 4)?
A: Its value is 0.

Q: What about the “Cytopathic effect [CPE] (3days) △CPE” value ([1]; 100 μg/ml, Example 4) of the same molecule?
A: Its value is 1.5.

Q: What about the “Cytopathic effect [CPE] (5days) △CPE” value ([1]; 100 μg/ml, Example 4) of the same molecule?
A: Its value is 3.05.

Q: And the “Cytopathic effect [CPE] (3days) Average” value ([1]; 100 μg/ml, Example 6)?
A: Its value is 0.

Q: What about the “Cytopathic effect [CPE] (6days) Average” value ([1]; 100 μg/ml, Example 6) of the same molecule?
A: The value was 0.

Q: What about the “Cytopathic effect [CPE] (3days) △CPE” value ([1]; 100 μg/ml, Example 6) of the same molecule?
A: The value was over 2.5.

Q: What about the “Cytopathic effect [CPE] (6days) △CPE” value ([1]; 100 μg/ml, Example 6) of the same molecule?
A: The value was 3.0.

Q: What about the “affinity for TK(v) as for TK(c)” value [2] of the same molecule?
A: Its value is “more than 200 times”.

Q: Which “Cytopathic effect [CPE] (3days) Average” value ([1]; 5 μg/ml, Example 4) does the source give for K₅BW₁₂O₄₀.15H₂O [Compound A] here?
A: Its value is 1.0.

Q: What about the “Cytopathic effect [CPE] (5days) Average” value ([1]; 5 μg/ml, Example 4) of the same molecule?
A: Its value is 2.5.

Q: And the “Cytopathic effect [CPE] (3days) △CPE” value ([1]; 5 μg/ml, Example 4)?
A: The value was 0.5.

Q: And the “Cytopathic effect [CPE] (5days) △CPE” value ([1]; 5 μg/ml, Example 4)?
A: The value was 0.5.

Q: And the “Cytopathic effect [CPE] (3days) Average” value ([1]; 10 μg/ml, Example 4)?
A: The value was 1.0.

Q: What about the “Cytopathic effect [CPE] (5days) Average” value ([1]; 10 μg/ml, Example 4) of the same molecule?
A: The value was 2.0.

Q: What about the “Cytopathic effect [CPE] (3days) △CPE” value ([1]; 10 μg/ml, Example 4) of the same molecule?
A: Its value is 0.5.

Q: And the “Cytopathic effect [CPE] (5days) △CPE” value ([1]; 10 μg/ml, Example 4)?
A: The value was 1.0.

Q: And the “Cytopathic effect [CPE] (3days) Average” value ([1]; 20 μg/ml, Example 4)?
A: The value was 1.0.

Q: And the “Cytopathic effect [CPE] (5days) Average” value ([1]; 20 μg/ml, Example 4)?
A: The value was 1.25.

Q: What about the “Cytopathic effect [CPE] (3days) △CPE” value ([1]; 20 μg/ml, Example 4) of the same molecule?
A: The value was 0.5.

Q: And the “Cytopathic effect [CPE] (5days) △CPE” value ([1]; 20 μg/ml, Example 4)?
A: The value was 1.75.

Q: What about the “Cytopathic effect [CPE] (3days) Average” value ([1]; 50 μg/ml, Example 4) of the same molecule?
A: Its value is 0.5.

Q: And the “Cytopathic effect [CPE] (5days) Average” value ([1]; 50 μg/ml, Example 4)?
A: The value was 0.5.

Q: And the “Cytopathic effect [CPE] (3days) △CPE” value ([1]; 50 μg/ml, Example 4)?
A: The value was 1.0.

Q: And the “Cytopathic effect [CPE] (5days) △CPE” value ([1]; 50 μg/ml, Example 4)?
A: The value was 2.5.

Q: And the “Cytopathic effect [CPE] (3days) Average” value ([1]; 100 μg/ml, Example 4)?
A: Its value is 0.

Q: What about the “Cytopathic effect [CPE] (5days) Average” value ([1]; 100 μg/ml, Example 4) of the same molecule?
A: Its value is 0.

Q: And the “Cytopathic effect [CPE] (3days) △CPE” value ([1]; 100 μg/ml, Example 4)?
A: Its value is 1.5.

Q: And the “Cytopathic effect [CPE] (5days) △CPE” value ([1]; 100 μg/ml, Example 4)?
A: Its value is 3.05.

Q: And the “Cytopathic effect [CPE] (3days) Average” value ([1]; 100 μg/ml, Example 6)?
A: Its value is 0.

Q: And the “Cytopathic effect [CPE] (6days) Average” value ([1]; 100 μg/ml, Example 6)?
A: The value was 0.

Q: What about the “Cytopathic effect [CPE] (3days) △CPE” value ([1]; 100 μg/ml, Example 6) of the same molecule?
A: Its value is 2.5.

Q: What about the “Cytopathic effect [CPE] (6days) △CPE” value ([1]; 100 μg/ml, Example 6) of the same molecule?
A: Its value is 3.0.

Q: What about the “Cytopathic effect [CPE] (3days) Average” value ([1]; 200 μg/ml, Example 6) of the same molecule?
A: Its value is 0.

Q: What about the “Cytopathic effect [CPE] (6days) Average” value ([1]; 200 μg/ml, Example 6) of the same molecule?
A: Its value is 0.

Q: And the “Cytopathic effect [CPE] (3days) △CPE” value ([1]; 200 μg/ml, Example 6)?
A: Its value is 2.5.

Q: What about the “Cytopathic effect [CPE] (6days) △CPE” value ([1]; 200 μg/ml, Example 6) of the same molecule?
A: The value was 3.0.

Q: And the “Ratio (%)” value ([3]; 100 μg/ml)?
A: Its value is “absolutely no effect”.

Q: And the “Ratio (%)” value ([3]; 200 μg/ml)?
A: Its value is “absolutely no effect”.

Q: And the “maximum nontoxic doses (MNTD)” value [4]?
A: Its value is over 200 µg/mL.

Q: And the “Cellular toxity (3 days) Maximum nontoxic does” value ([4]; 72 h)?
A: The value was over 200 µg/mL.

Q: And the “Cellular toxity (5 days) Maximum nontoxic does” value ([4]; 120 h)?
A: Its value is over 200 µg/mL.
